The results in this text go back to patent US20260242419A1, “A CYCLIC PEPTIDE FOR TRAPPING INTERLEUKIN-1 BETA” (Merck Sharp & Dohme LLC, priority 2023, published 2026).

Starred links: 1 amine or outer side, 2 acyl side, 3 side chain; linkers in the order of their positions; H or OH if unused. Non-standard residues stand in square brackets, D forms with d. Residues, ends and D or L forms follow the SMILES beside them. Trp(βS-Me,4-F) = C[C@@H](c1c[nH]c2cccc(F)c12)[C@H](N)C(=O)O; Bip(4'-COOH) = N[C@@H](Cc1ccc(-c2ccc(C(=O)O)cc2)cc1)C(=O)O; Ala(1-bicyclo(1.1.1)pentyl) = N[C@@H](CC12CC(C1)C2)C(=O)O; dPro(4R-Bzl(4-F)) = O=C(O)[C@H]1C[C@@H](Cc2ccc(F)cc2)CN1; X3 = CC(=O)NCCOc1ccc(C[C@H](N[*:1])C(=O)[*:2])cn1; Ala(pyrimidin-5-yl) = N[C@@H](Cc1cncnc1)C(=O)O; Phe(4-COOH) = N[C@@H](Cc1ccc(C(=O)O)cc1)C(=O)O; Pro(cis-4-F) = O=C(O)[C@@H]1C[C@H](F)CN1; AEF = NCCOc1ccc(C[C@H](N)C(=O)O)cc1; 4Pal = N[C@@H](Cc1ccncc1)C(=O)O; Orn = NCCC[C@H](N)C(=O)O; Dab = NCC[C@H](N)C(=O)O; Dap = NC[C@H](N)C(=O)O; Aib = CC(C)(N)C(=O)O

T1 sequence (P01584 117-269): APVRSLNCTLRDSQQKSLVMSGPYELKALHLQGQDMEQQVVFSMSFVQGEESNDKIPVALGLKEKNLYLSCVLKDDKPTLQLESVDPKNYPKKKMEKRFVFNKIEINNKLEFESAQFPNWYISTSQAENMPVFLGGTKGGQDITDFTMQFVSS

The assay concerns the target T1, IL-1β (Homo sapiens, UniProt P01584).
T1 construct: purchased BioLegend 579404
Kind of assay: IL-6 assay in MRC5 cells: inhibition of IL-1β induced IL-6 secretion (AlphaLISA). It is filed as cell-based. Conditions: inhibition of IL-1β induced IL-6 secretion in MRC5 cells; read-out: MRC5 IC50. As to the method: Procedure for IL-6 Assay in MRC5 Cells
The inhibition of IL-1β induced IL-6 secretion was evaluated in MRC5 cells. Recombinant human IL-1β (BioLegend 579404) at 2λ EC80 concentration was prepared in seeding medium. EMEM (ATCC 30-2003) with 0.025% BSA (Sigma A9576), 1×penicillin/streptomycin (Gibco 15070-063), 1×NEAA (Gibco 11140-050), 1×GlutaMax (Gibco 35050-061), and 1×sodium pyruvate (Gibco 11360-070), 20 μL of IL-1β was added to a 384-well collagen-coated plate (Corning 354664) and pre-incubated at ambient temperature for 1 hour with 200 nL of compound dispensed using an ECHO 555 liquid handler. Human lung fibroblast MRC5 cells (ATCC CCL-171) were added at a density of 3000 cells/20 μL per well. The cells were prepared by passaging three times in growth medium, EMEM (ATCC 30-2003) with 10% fetal bovine serum (Gibco 16140-071), 1×penicillin/streptomycin (Gibco 15070-063), 1×NEAA (Gibco 11140-050), 1×GlutaMax (Gibco 35050-061), and 1×sodium pyruvate (Gibco 11360-070) in collagen-coated T175 flasks (Greiner 661950) and harvested in seeding medium after 5 minutes of 0.25% trypsin-EDTA (Gibco 25200-056) digestion. The 384-well collagen-coated plate, containing a final volume of 40 μL, was incubated at 37° C., 5% CO2 overnight. 5 μL of the conditioned medium was transferred to a 384-well AlphaLISA plate (PerkinElmer 6005350) for detection of IL-6 using the human AlphaLISA IL-6 kit (PerkinElmer AL223F) as per the manufacturer's protocol. 20 μL of the acceptor bead/biotinylated antibody mix was added to the 384-well AlphaLISA plate and incubated for 1 hour at ambient temperature. The donor bead mix was protected from light and 25 μL was added to the plate and incubated for 30 minutes at ambient temperature. The AlphaLISA plate was read on an EnVision multimode plate reader (Perkin Elmer model 2104) using the AlphaScreen setting (laser exc at 680 nm and emis at […]). Dose response curves and IC50 values were analyzed using a 4-parameter logistic equation in Spotfire software (Tibco, Palo Alto, CA).
In general terms: In Alpha technology, singlet oxygen from a donor bead excites a nearby acceptor bead.
The term IC50 denotes the concentration at which inhibition is half-maximal. Turning to `C[C@@H](c1c[nH]c2cccc(F)c12)[C@@H]1NC(=O)[C@@H]2C[C@H](F)CN2C(=O)CNC(=O)[C@H](Cc2ccc(C(=O)O)cc2)NC(=O)[C@H](Cc2ccncc2)NC(=O)[C@H](Cc2ccc(-c3ccc(C(=O)O)cc3)cc2)NC(=O)[C@H]2C[C@@H](Cc3ccc(F)cc3)CN2C(=O)CNC(=O)[C@H](CCN)NC(=O)[C@H](CCC(N)=O)NC(=O)[C@H](Cc2ccncc2)NC(=O)C(C)(C)NC(=O)[C@H](Cc2c[nH]c3ccccc23)NC(=O)[C@H](CCC(=O)O)NC(=O)C(C)(C)NC1=O` [Example 2] (cyclo([Bip(4'-COOH)][4Pal][Phe(4-COOH)]G[Pro(cis-4-F)][Trp(βS-Me,4-F)][Aib]EW[Aib][4Pal]Q[Dab]G[dPro(4R-Bzl(4-F))])), the IC50 worked out at 23 pM. The figure for `C[C@@H](c1c[nH]c2cccc(F)c12)[C@@H]1NC(=O)[C@@H]2C[C@H](F)CN2C(=O)CNC(=O)[C@H](Cc2ccc(C(=O)O)cc2)NC(=O)[C@H](Cc2ccncc2)NC(=O)[C@H](Cc2ccc(-c3ccc(C(=O)O)cc3)cc2)NC(=O)[C@H]2C[C@@H](Cc3ccc(F)cc3)CN2C(=O)CNC(=O)[C@H](CO)NC(=O)[C@H](CCC(N)=O)NC(=O)[C@H](Cc2cncnc2)NC(=O)C(C)(C)NC(=O)[C@H](Cc2c[nH]c3ccccc23)NC(=O)[C@H](CCC(=O)O)NC(=O)C(C)(C)NC1=O` [Example 3] (cyclo([Bip(4'-COOH)][4Pal][Phe(4-COOH)]G[Pro(cis-4-F)][Trp(βS-Me,4-F)][Aib]EW[Aib][Ala(pyrimidin-5-yl)]QSG[dPro(4R-Bzl(4-F))])) is 37 pM; for `C[C@@H](c1c[nH]c2cccc(F)c12)[C@@H]1NC(=O)[C@@H]2C[C@H](F)CN2C(=O)CNC(=O)[C@H](Cc2ccc(C(=O)O)cc2)NC(=O)[C@H](Cc2ccncc2)NC(=O)[C@H](Cc2ccc(-c3ccc(C(=O)O)cc3)cc2)NC(=O)[C@H]2C[C@@H](Cc3ccc(F)cc3)CN2C(=O)CNC(=O)[C@H](CCN)NC(=O)[C@H](CCC(N)=O)NC(=O)[C@H](Cc2cncnc2)NC(=O)C(C)(C)NC(=O)[C@H](Cc2c[nH]c3ccccc23)NC(=O)[C@H](CCC(=O)O)NC(=O)C(C)(C)NC1=O` [Example 4] (cyclo([Bip(4'-COOH)][4Pal][Phe(4-COOH)]G[Pro(cis-4-F)][Trp(βS-Me,4-F)][Aib]EW[Aib][Ala(pyrimidin-5-yl)]Q[Dab]G[dPro(4R-Bzl(4-F))])) it is 31 pM; for `C[C@@H](c1c[nH]c2cccc(F)c12)[C@@H]1NC(=O)[C@@H]2C[C@H](F)CN2C(=O)CNC(=O)[C@H](Cc2ccc(C(=O)O)cc2)NC(=O)[C@H](Cc2ccncc2)NC(=O)[C@H](Cc2ccc(-c3ccc(C(=O)O)cc3)cc2)NC(=O)[C@H]2C[C@@H](Cc3ccc(F)cc3)CN2C(=O)CNC(=O)[C@H](CCN)NC(=O)[C@H](CCC(N)=O)NC(=O)[C@H](CO)NC(=O)C(C)(C)NC(=O)[C@H](Cc2c[nH]c3ccccc23)NC(=O)[C@H](CO)NC(=O)C(C)(C)NC1=O` [Example 5] (cyclo([Bip(4'-COOH)][4Pal][Phe(4-COOH)]G[Pro(cis-4-F)][Trp(βS-Me,4-F)][Aib]SW[Aib]SQ[Dab]G[dPro(4R-Bzl(4-F))])) it is 39 pM. Then `C[C@@H](c1c[nH]c2cccc(F)c12)[C@@H]1NC(=O)[C@@H]2C[C@H](F)CN2C(=O)CNC(=O)[C@H](Cc2ccc(C(=O)O)cc2)NC(=O)[C@H](Cc2ccncc2)NC(=O)[C@H](Cc2ccc(-c3ccc(C(=O)O)cc3)cc2)NC(=O)[C@H]2C[C@@H](Cc3ccc(F)cc3)CN2C(=O)CNC(=O)[C@H](CN)NC(=O)[C@H](CCC(N)=O)NC(=O)[C@H](Cc2cncnc2)NC(=O)C(C)(C)NC(=O)[C@H](Cc2c[nH]c3ccccc23)NC(=O)[C@H](CCC(=O)O)NC(=O)C(C)(C)NC1=O` [Example 7] (cyclo([Bip(4'-COOH)][4Pal][Phe(4-COOH)]G[Pro(cis-4-F)][Trp(βS-Me,4-F)][Aib]EW[Aib][Ala(pyrimidin-5-yl)]Q[Dap]G[dPro(4R-Bzl(4-F))])), with 26 pM; and `C[C@@H](c1c[nH]c2cccc(F)c12)[C@@H]1NC(=O)[C@@H]2C[C@H](F)CN2C(=O)CNC(=O)[C@H](Cc2ccc(C(=O)O)cc2)NC(=O)[C@H](Cc2ccncc2)NC(=O)[C@H](Cc2ccc(-c3ccc(C(=O)O)cc3)cc2)NC(=O)[C@H]2C[C@@H](Cc3ccc(F)cc3)CN2C(=O)CNC(=O)[C@H](CCCN)NC(=O)[C@H](CCC(N)=O)NC(=O)[C@H](Cc2cncnc2)NC(=O)C(C)(C)NC(=O)[C@H](Cc2c[nH]c3ccccc23)NC(=O)[C@H](CCC(=O)O)NC(=O)C(C)(C)NC1=O` [Example 8] (cyclo([Bip(4'-COOH)][4Pal][Phe(4-COOH)]G[Pro(cis-4-F)][Trp(βS-Me,4-F)][Aib]EW[Aib][Ala(pyrimidin-5-yl)]Q[Orn]G[dPro(4R-Bzl(4-F))])), with 26 pM. The figure for `C[C@@H](c1c[nH]c2cccc(F)c12)[C@@H]1NC(=O)[C@@H]2C[C@H](F)CN2C(=O)CNC(=O)[C@H](Cc2ccc(C(=O)O)cc2)NC(=O)[C@H](Cc2ccncc2)NC(=O)[C@H](Cc2ccc(-c3ccc(C(=O)O)cc3)cc2)NC(=O)[C@H]2C[C@@H](Cc3ccc(F)cc3)CN2C(=O)CNC(=O)[C@H](CCCCN)NC(=O)[C@H](CCC(N)=O)NC(=O)[C@H](Cc2cncnc2)NC(=O)C(C)(C)NC(=O)[C@H](Cc2c[nH]c3ccccc23)NC(=O)[C@H](CCC(=O)O)NC(=O)C(C)(C)NC1=O` [Example 9] (cyclo([Bip(4'-COOH)][4Pal][Phe(4-COOH)]G[Pro(cis-4-F)][Trp(βS-Me,4-F)][Aib]EW[Aib][Ala(pyrimidin-5-yl)]QKG[dPro(4R-Bzl(4-F))])) is 28 pM.

As for `CC(=O)NCCOc1ccc(C[C@@H]2NC(=O)[C@H]3C[C@@H](Cc4ccc(F)cc4)CN3C(=O)CNC(=O)[C@H](CCN)NC(=O)[C@H](CCC(N)=O)NC(=O)[C@H](Cc3cncnc3)NC(=O)C(C)(C)NC(=O)[C@H](Cc3c[nH]c4ccccc34)NC(=O)[C@H](CCC(=O)O)NC(=O)C(C)(C)NC(=O)[C@H]([C@@H](C)c3c[nH]c4cccc(F)c34)NC(=O)[C@@H]3C[C@H](F)CN3C(=O)CNC(=O)[C@H](Cc3ccc(C(=O)O)cc3)NC(=O)[C@H](Cc3ccncc3)NC2=O)cc1` [Example 10] (cyclo([AEF](Ac)[4Pal][Phe(4-COOH)]G[Pro(cis-4-F)][Trp(βS-Me,4-F)][Aib]EW[Aib][Ala(pyrimidin-5-yl)]Q[Dab]G[dPro(4R-Bzl(4-F))])), the IC50 worked out at 27 pM. With `CC(=O)NCCOc1ccc(C[C@@H]2NC(=O)[C@H]3C[C@@H](Cc4ccc(F)cc4)CN3C(=O)CNC(=O)[C@H](CN)NC(=O)[C@H](CCC(N)=O)NC(=O)[C@H](Cc3cncnc3)NC(=O)C(C)(C)NC(=O)[C@H](Cc3c[nH]c4ccccc34)NC(=O)[C@H](CCC(=O)O)NC(=O)C(C)(C)NC(=O)[C@H]([C@@H](C)c3c[nH]c4cccc(F)c34)NC(=O)[C@@H]3C[C@H](F)CN3C(=O)CNC(=O)[C@H](Cc3ccc(C(=O)O)cc3)NC(=O)[C@H](Cc3ccncc3)NC2=O)cc1` [Example 11] (cyclo([AEF](Ac)[4Pal][Phe(4-COOH)]G[Pro(cis-4-F)][Trp(βS-Me,4-F)][Aib]EW[Aib][Ala(pyrimidin-5-yl)]Q[Dap]G[dPro(4R-Bzl(4-F))])), the IC50 was 45 pM. Then `CC(=O)NCCOc1ccc(C[C@@H]2NC(=O)[C@H]3C[C@@H](Cc4ccc(F)cc4)CN3C(=O)CNC(=O)[C@H](CCN)NC(=O)[C@H](CCC(N)=O)NC(=O)[C@H](Cc3cncnc3)NC(=O)C(C)(C)NC(=O)[C@H](Cc3c[nH]c4ccccc34)NC(=O)[C@H](CCC(=O)O)NC(=O)C(C)(C)NC(=O)[C@H]([C@@H](C)c3c[nH]c4cccc(F)c34)NC(=O)[C@@H]3C[C@H](F)CN3C(=O)CNC(=O)[C@H](Cc3ccc(C(=O)O)cc3)NC(=O)[C@H](Cc3ccncc3)NC2=O)cn1` [Example 12] (cyclo([X3][4Pal][Phe(4-COOH)]G[Pro(cis-4-F)][Trp(βS-Me,4-F)][Aib]EW[Aib][Ala(pyrimidin-5-yl)]Q[Dab]G[dPro(4R-Bzl(4-F))])), with 72 pM. Then `C[C@@H](c1c[nH]c2cccc(F)c12)[C@@H]1NC(=O)[C@@H]2C[C@H](F)CN2C(=O)CNC(=O)[C@H](Cc2ccc(C(=O)O)cc2)NC(=O)[C@H](CC23CC(C2)C3)NC(=O)[C@H](Cc2ccc(-c3ccc(C(=O)O)cc3)cc2)NC(=O)[C@H]2C[C@@H](Cc3ccc(F)cc3)CN2C(=O)CNC(=O)[C@H](CCN)NC(=O)[C@H](CCC(N)=O)NC(=O)[C@H](Cc2cncnc2)NC(=O)C(C)(C)NC(=O)[C@H](Cc2c[nH]c3ccccc23)NC(=O)[C@H](CCC(=O)O)NC(=O)C(C)(C)NC1=O` [Example 13] (cyclo([Bip(4'-COOH)][Ala(1-bicyclo(1.1.1)pentyl)][Phe(4-COOH)]G[Pro(cis-4-F)][Trp(βS-Me,4-F)][Aib]EW[Aib][Ala(pyrimidin-5-yl)]Q[Dab]G[dPro(4R-Bzl(4-F))])), with 22 pM.
